Patent US20140234227A1, “FOAM FORMULATIONS” (OTIC PHARMA LTD, priority 2011, published 2014)
Counter-ions that a name gives are not always drawn.

Key:
Experiment in all cases: Antibiotics-Microbial Assay - Zone of Growth Inhibition
Assay type in all cases: cell-based
E. Coli (ATCC No. 8739) = conditions: LB-agar, 24 hrs at 37° C.
Experimental: (§1) In this assay the diameter (halo) of bacterial growth inhibition around filters soaked with a test item was measured and compared to a standard solution of antibiotic. For this end, sterile Microbiological cotton swabs were soaked with cultures of E. Coli (ATCC No. 8739), S. aureus (ATCC No. 6538) or of Pseudomonas aeruginosa (ATCC No. 9027) and evenly spread on top of LB-agar plates. Filters soaked with the tested formulation were placed on top of the plates and the plates were further incubated for 24 hrs. The diameter (halo) of growth inhibition around each filter was measured after 24 hrs of incubation at 37° C. A solution that contained the same concentration of Ciprofloxacin Hydrochloride (0.35%) as in the formulation tested was used as a control.

[1] = system: Pseudomonas aeruginosa (ATCC No. 9027); conditions: LB-agar, 24 hrs at 37° C.
Experimental: as §1

[2] = system: S. aureus (ATCC No. 6538); conditions: Staph. Aureus, LB-agar, 24 hrs at 37° C.
Experimental: as §1

O=C(O)c1cn(C2CC2)c2cc(N3CCNCC3)c(F)cc2c1=O [Ciprofloxacin HCl solution (0.35%), monohydrochloride monohydrate salt of 1-cyclopropyl-6-fluoro-1,4-dihydro-4-oxo-7-(1-piperazinyl)-3-quinolinecarboxylic acid]
diameter of growth inhibition (E. Coli (ATCC No. 8739)): 3.6 cm | diameter of growth inhibition [1]: 4.85 cm | diameter of growth inhibition [2]: 4.7 cm
